Assay results reported in patent US20260035376A1, “COMPOSITIONS AND METHODS FOR INHIBITION OF RAS” (TheRas, Inc., priority 2022, published 2026).
pIC50: −log10 of the molar value.

Key:
[1] = target: T1, Avi-KRAS G12D (1-169) GppNHp/RAF1 RBD-3×FLAG (52-151) (Homo sapiens, UniProt P01116, G12D); test: Disrupting RAS-effector binding HTRF assay, Raf1 RBD-KRAS G12D-GppNHp; details: PPI HTRF, 50 nM Avi-KRAS G12D GppNHp, compound titration 30-0.0045 μM; read-out: Raf1 RBD-KRAS G12D-GppNHp disruption
T1 construct: 50 nM Avi-KRAS G12D (1-169) GppNHp/RAF1 RBD-3×FLAG (52-151)

[2] = target: T2, Avi-KRAS G12V (1-169) GppNHp/RAF1 RBD-3×FLAG (52-151) (Homo sapiens, UniProt P01116, G12V); test: Disrupting RAS-effector binding HTRF assay, Raf1 RBD-KRAS G12V-GppNHp; details: PPI HTRF, 50 nM Avi-KRAS G12V GppNHp, compound titration 30-0.0045 μM; read-out: Raf1 RBD-KRAS G12V-GppNHp disruption
T2 construct: 50 nM Avi-KRAS G12V (1-169) GppNHp/RAF1 RBD-3×FLAG (52-151)

[3] = target: T3, Avi-KRAS G12R (1-169) GppNHp/RAF1 RBD-3×FLAG (52-151) (Homo sapiens, UniProt P01116, G12R); test: Disrupting RAS-effector binding HTRF assay, Raf1 RBD-KRAS G12R-GppNHp; details: PPI HTRF, 50 nM Avi-KRAS G12R GppNHp, compound titration 30-0.0045 μM; read-out: Raf1 RBD-KRAS G12R-GppNHp disruption
T3 construct: 50 nM Avi-KRAS G12R (1-169) GppNHp/RAF1 RBD-3×FLAG (52-151)

[4] = target: T4, Avi-KRAS WT (1-169) GppNHp/RAF1 RBD-3×FLAG (52-151) (Homo sapiens, UniProt P01116); test: Disrupting RAS-effector binding HTRF assay, Raf1 RBD-KRAS WT-GppNHp; details: PPI HTRF, 50 nM Avi-KRAS WT GppNHp, compound titration 30-0.0045 μM; read-out: Raf1 RBD-KRAS WT-GppNHp disruption
T4 construct: 50 nM Avi-KRAS WT (1-169) GppNHp/RAF1 RBD-3×FLAG (52-151)

[5] = tested on: KRAS G12D protein/effector signaling in GP2d cells; test: Cell-based pERK HTRF assay in GP2d cell; details: 1 h, 60 min incubation
In short: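 GP2d cells (DMEM, 10% FBS) exposed 60 min to a 9-point half-log compound series at 0.25% DMSO, then lysed. Phospho-ERK quantified by HTRF with d2/Eu cryptate antibodies after 4–24 h at room temperature, ex 320/em 615 nm.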

[6] = tested on: KRAS G12V protein/effector signaling in SW620 cells; test: Cell-based pERK HTRF assay in SW620 cell; details: Homo sapiens, SW-620, 1 h incubation
Method: pERK assay (Perkin Elmer) was used to determine the effectiveness of compounds in disrupting KRAS G12V protein/effector signaling in cells.
On Day 1, cells (SW620) were seeded into 96-well plates at 3×10^4 cells/well in 80 μL complete growth media (DMEM, 10% FBS).
On Day 2, cells were treated with compounds at 0.25% DMSO. The source plate was created with compounds diluted in media at 5-fold the final assay concentration. The compounds were run in a 9-point concentration curve starting at 10 μM, with a half-log dilution between concentrations. 20 μL was transferred onto the cell plates (final volume in wells was 100 μL). Plates were harvested after 1 h incubation by aspirating media and adding kit-supplied 1× supplemented lysis buffer to all wells (50 μL per well). Plates were then placed on a plate shaker and incubated at 850 rpm for an additional 30 min.
Antibody mixture solution was prepared by diluting aliquoted d2 and Eu Cryptate antibodies 1:20 in kit supplied detection buffer, and mixing the diluted antibodies solutions (1:1 v:v). Four μL of this solution was then added to a 384-well detection plate (Perkin Elmer; 6008230).
Samples were homogenized by pipetting up and down and then transferred (16 μL of cell lysates) from the 96-well cell culture plate to two wells of the HTRF 384-well detection plate containing the antibody solution. Plates were centrifuged (524 g for 1 min) and allowed to incubate between 4 and 24 h at room temperature. Maximum signal was reached after 4 h incubation time and remained stable over a period of 24 hours. Therefore, readings could be made between 4 and 24 h of incubation. Plates were centrifuged again (524 g for 1 min), then analyzed on the EnVision plate reader using the following settings: Excitation 320 nm, Bandwidth 75 nm; Emission 615 nm, Bandwidth 85 nm; Gain 100%; Flashes 100; Lag 60 μs.

T2 sequence (P01116 1-169 isoform P01116-2 G12V limits assumed): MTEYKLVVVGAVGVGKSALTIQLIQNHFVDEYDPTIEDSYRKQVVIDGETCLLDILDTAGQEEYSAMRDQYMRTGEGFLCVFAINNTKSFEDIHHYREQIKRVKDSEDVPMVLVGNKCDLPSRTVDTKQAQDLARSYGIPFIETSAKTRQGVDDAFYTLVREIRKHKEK
T3 sequence (P01116 1-169 isoform P01116-2 G12R limits assumed): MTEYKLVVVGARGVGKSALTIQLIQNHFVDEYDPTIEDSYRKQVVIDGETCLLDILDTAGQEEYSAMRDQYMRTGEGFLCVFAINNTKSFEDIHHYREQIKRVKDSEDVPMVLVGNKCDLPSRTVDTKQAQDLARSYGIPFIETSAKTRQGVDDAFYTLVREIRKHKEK
T4 sequence (P01116 1-169 isoform P01116-2 limits assumed): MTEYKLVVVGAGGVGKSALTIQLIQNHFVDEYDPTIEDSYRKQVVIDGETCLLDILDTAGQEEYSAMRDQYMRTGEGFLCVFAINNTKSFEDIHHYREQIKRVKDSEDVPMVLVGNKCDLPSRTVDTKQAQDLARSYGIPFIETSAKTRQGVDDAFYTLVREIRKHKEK
T1 sequence (P01116 1-169 isoform P01116-2 G12D limits assumed): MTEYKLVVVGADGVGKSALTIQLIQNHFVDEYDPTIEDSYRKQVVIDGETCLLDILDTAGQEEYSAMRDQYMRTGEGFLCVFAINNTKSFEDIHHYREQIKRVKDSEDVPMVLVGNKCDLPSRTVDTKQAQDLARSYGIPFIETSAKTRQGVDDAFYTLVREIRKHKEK

| SMILES | pIC50 [1] | pIC50 [2] | pIC50 [3] | pIC50 [4] | pIC50 [5] | pIC50 [6] |
| --- | --- | --- | --- | --- | --- | --- |
| COCCCOc1nc(N2CC3CCC(C2)N3)c2cc(C(F)(F)F)c(-c3ccc(F)c4sc(N)c(C#N)c34)c(F)c2n1 [Compound 36] | 6.00 to 7.00 | < 5.00 | < 5.00 | 5.00 to 6.00 | ≥ 7.00 | < 5.00 |
| N#Cc1c(N)sc2c(F)ccc(-c3c(C(F)(F)F)cc4c(N5CC6CCC(C5)N6)nc(OCCc5cnoc5)nc4c3F)c12 [Compound 65] | 6.00 to 7.00 | < 5.00 | < 5.00 | 5.00 to 6.00 | ≥ 7.00 | < 5.00 |
| N#Cc1c(N)sc2c(F)ccc(-c3c(C(F)(F)F)cc4c(N5CC6CCC(C5)N6)nc(OC[C@@H](O)CO)nc4c3F)c12 [Compound 34] | 6.00 to 7.00 | 5.00 to 6.00 | < 5.00 | 5.00 to 6.00 | 6.00 to 7.00 | < 5.00 |
| N#Cc1c(N)sc2c(F)ccc(-c3c(C(F)(F)F)cc4c(N5CC6CCC(C5)N6)nc(OCC5CCOC5)nc4c3F)c12 (stereo not drawn) [Compound 47] | 6.00 to 7.00 | < 5.00 | < 5.00 | 5.00 to 6.00 | ≥ 7.00 | < 5.00 |
| N#Cc1c(N)sc2c(F)ccc(-c3c(C(F)(F)F)cc4c(N5CC6CCC(C5)N6)nc(OC[C@H]5COCCO5)nc4c3F)c12 [Compound 40] | 6.00 to 7.00 | 5.00 to 6.00 | 5.00 to 6.00 | 6.00 to 7.00 | ≥ 7.00 | < 5.00 |
| N#Cc1c(N)sc2c(F)ccc(-c3c(C(F)(F)F)cc4c(N5CC6CCC(C5)N6)nc(OC[C@@H]5COCCO5)nc4c3F)c12 [Compound 38] | 5.00 to 6.00 | < 5.00 | < 5.00 | 5.00 to 6.00 | ≥ 7.00 | < 5.00 |
| N#Cc1c(N)sc2c(F)ccc(-c3c(C(F)(F)F)cc4c(N5CC6CCC(C5)N6)nc(O)nc4c3F)c12 [Compound 43] | < 5.00 | < 5.00 | < 5.00 | < 5.00 | < 6.00 | < 5.00 |
| CN1C[C@H](COc2nc(N3CC4CCC(C3)N4)c3cc(C(F)(F)F)c(-c4ccc(F)c5sc(N)c(C#N)c45)c(F)c3n2)CC1=O [Compound 33] | 6.00 to 7.00 | < 5.00 | < 5.00 | 5.00 to 6.00 | ≥ 7.00 | < 5.00 |
| N#Cc1c(N)sc2c(F)ccc(-c3c(C(F)(F)F)cc4c(N5CC6CCC(C5)N6)nc(OCCC5CCOC5)nc4c3F)c12 (stereo not drawn) [Compound 50] | 6.00 to 7.00 | < 5.00 | < 5.00 | 5.00 to 6.00 | ≥ 7.00 | < 5.00 |
| N#Cc1c(N)sc2c(F)ccc(-c3c(C(F)(F)F)cc4c(N5CC6CCC(C5)N6)nc(OCCO)nc4c3F)c12 [Compound 32] | 6.00 to 7.00 | < 5.00 | < 5.00 | 5.00 to 6.00 | ≥ 7.00 | < 5.00 |
| N#Cc1c(N)sc2c(F)ccc(-c3c(C(F)(F)F)cc4c(N5CC6CCC(C5)N6)nc(OCCCCO)nc4c3F)c12 [Compound 41] | 6.00 to 7.00 | < 5.00 | < 5.00 | 5.00 to 6.00 | ≥ 7.00 | < 5.00 |
| N#Cc1c(N)sc2c(F)ccc(-c3c(C(F)(F)F)cc4c(N5CC6CCC(C5)N6)nc(OCC5CCCCO5)nc4c3F)c12 (stereo not drawn) [Compound 49] | 5.00 to 6.00 | < 5.00 | < 5.00 | 5.00 to 6.00 | ≥ 7.00 | < 5.00 |
| CC(=O)Nc1nc(N2CC3CCC(C2)N3)c2cc(C(F)(F)F)c(-c3ccc(F)c4sc(N)c(C#N)c34)c(F)c2n1 [Compound 28] | 5.00 to 6.00 | < 5.00 | < 5.00 | < 5.00 | ≥ 7.00 | < 5.00 |
| CN(c1nc(OCC2CCOCC2)nc2c(F)c(-c3ccc(F)c4sc(N)c(C#N)c34)c(C(F)(F)F)cc12)[C@H]1CCCNC1 [Compound 63] | < 5.00 | < 5.00 | < 5.00 | < 5.00 | < 6.00 | < 5.00 |
| N#Cc1c(N)sc2c(F)ccc(-c3c(C(F)(F)F)cc4c(N5CC6CCC(C5)N6)nc(OCCCO)nc4c3F)c12 [Compound 31] | 6.00 to 7.00 | < 5.00 | < 5.00 | 5.00 to 6.00 | ≥ 7.00 | < 5.00 |
| CN(c1nc(OCC2CCOCC2)nc2c(F)c(-c3ccc(F)c4sc(N)c(C#N)c34)c(C(F)(F)F)cc12)[C@@H]1CCCNC1 [Compound 62] | 5.00 to 6.00 | < 5.00 | < 5.00 | < 5.00 | < 6.00 | < 5.00 |
